Laboratory results as given in patent publication US20260285855A1, “HETEROARYL DERIVATIVES AS DDRS INHIBITORS” (CHIESI FARMACEUTICI S.P.A., priority 2023, published 2026).

Experiments:
[1] = target: T1, DDR2 (Homo sapiens, UniProt Q16832); assay: LanthaScreen Europium Kinase Binding assay, DDR2; conditions: 5 nM DDR2, 10 nM Kinase Tracer 178, 1 h at rt; Ki from IC50 by Cheng-Prusoff; read-out: Ki DDR2
T1 construct: purchased Life Technologies
T1 sequence (Q16832 22-855): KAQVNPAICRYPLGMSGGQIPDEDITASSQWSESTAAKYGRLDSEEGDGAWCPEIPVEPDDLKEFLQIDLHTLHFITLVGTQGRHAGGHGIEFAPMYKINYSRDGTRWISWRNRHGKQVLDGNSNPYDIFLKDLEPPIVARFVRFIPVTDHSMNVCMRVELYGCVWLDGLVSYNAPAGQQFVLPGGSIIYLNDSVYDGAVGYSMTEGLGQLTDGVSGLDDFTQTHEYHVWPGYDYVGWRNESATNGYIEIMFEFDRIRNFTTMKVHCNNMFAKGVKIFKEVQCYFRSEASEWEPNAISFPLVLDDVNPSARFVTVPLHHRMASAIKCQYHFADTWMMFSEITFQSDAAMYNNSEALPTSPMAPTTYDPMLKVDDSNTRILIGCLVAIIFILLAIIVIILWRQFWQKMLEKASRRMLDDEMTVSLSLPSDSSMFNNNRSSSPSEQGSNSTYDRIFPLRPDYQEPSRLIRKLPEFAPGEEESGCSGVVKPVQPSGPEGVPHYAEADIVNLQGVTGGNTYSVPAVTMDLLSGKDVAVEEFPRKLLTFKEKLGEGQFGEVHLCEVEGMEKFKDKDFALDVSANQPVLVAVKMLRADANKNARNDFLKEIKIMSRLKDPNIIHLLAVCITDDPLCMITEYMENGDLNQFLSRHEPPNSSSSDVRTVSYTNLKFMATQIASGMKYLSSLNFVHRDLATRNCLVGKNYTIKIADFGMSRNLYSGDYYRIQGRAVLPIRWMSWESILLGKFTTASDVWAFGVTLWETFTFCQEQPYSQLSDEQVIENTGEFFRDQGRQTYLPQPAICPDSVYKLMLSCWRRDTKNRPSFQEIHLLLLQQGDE
Procedure: (§1) DDR1 and DDR2 binding assays were performed using Life Technologies LanthaScreen™ Europium Kinase Binding assay. […] IC50 values were determined in GraphPad Prism 7.0 software, using 4 parameter model: log (inhibitor) vs. response. IC50 values were converted in Ki using the Cheng-Prusoff equation (Ki-IC50/(1+ [Tracer]/Kd).

[2] = target: T2, DDR1 (Homo sapiens, UniProt Q08345); assay: LanthaScreen Europium Kinase Binding assay, DDR1; conditions: 5 nM DDR1, 20 nM Kinase Tracer 178, 1 h at rt; Ki from IC50 by Cheng-Prusoff; read-out: Ki DDR1
T2 construct: purchased Carna Biosciences
Procedure: as §1

T2 sequence (Q08345 19-913): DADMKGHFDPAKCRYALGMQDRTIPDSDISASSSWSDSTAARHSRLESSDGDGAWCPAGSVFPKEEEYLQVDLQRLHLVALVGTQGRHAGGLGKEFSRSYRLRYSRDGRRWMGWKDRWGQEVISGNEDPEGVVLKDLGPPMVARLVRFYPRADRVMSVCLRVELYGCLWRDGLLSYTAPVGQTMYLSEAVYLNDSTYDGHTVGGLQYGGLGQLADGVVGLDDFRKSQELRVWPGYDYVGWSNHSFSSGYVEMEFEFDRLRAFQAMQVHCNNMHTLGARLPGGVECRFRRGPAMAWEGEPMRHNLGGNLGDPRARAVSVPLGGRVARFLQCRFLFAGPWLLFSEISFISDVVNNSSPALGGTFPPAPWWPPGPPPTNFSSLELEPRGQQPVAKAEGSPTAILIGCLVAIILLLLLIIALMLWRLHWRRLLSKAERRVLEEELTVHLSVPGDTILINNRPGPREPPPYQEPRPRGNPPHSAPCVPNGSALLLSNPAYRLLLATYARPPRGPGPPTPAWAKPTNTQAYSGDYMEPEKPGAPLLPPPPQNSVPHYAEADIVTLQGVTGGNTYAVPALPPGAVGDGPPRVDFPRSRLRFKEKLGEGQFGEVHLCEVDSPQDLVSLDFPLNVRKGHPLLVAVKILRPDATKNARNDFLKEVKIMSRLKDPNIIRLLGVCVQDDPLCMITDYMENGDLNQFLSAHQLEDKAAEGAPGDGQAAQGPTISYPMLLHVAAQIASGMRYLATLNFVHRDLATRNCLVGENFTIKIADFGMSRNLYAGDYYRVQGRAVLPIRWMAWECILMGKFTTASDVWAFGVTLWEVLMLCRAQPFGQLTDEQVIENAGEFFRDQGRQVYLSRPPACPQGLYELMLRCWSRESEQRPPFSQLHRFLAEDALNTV

Ki [1] [nM] | Ki [2] [nM] | SMILES
5 to 25 | < 5 | O=C(Nc1cccc(C(F)(F)F)c1)NC1CC2(C1)CN(C(=O)c1cnc3ccccn13)C2 [Example 1, 1-(2-(imidazo[1,2-a]pyridine-3-carbonyl)-2-azaspiro[3.3]heptan-6-yl)-3-(3-(trifluoromethyl)phenyl)urea]
5 to 25 | < 5 | O=C(Nc1cccc(C(F)(F)F)c1)NC1CC2(C1)CN(C(=O)c1cnn3ccncc13)C2 [Example 2, 1-(2-(pyrazolo[1,5-a]pyrazine-3-carbonyl)-2-azaspiro[3.3]heptan-6-yl)-3-(3-(trifluoromethyl)phenyl)urea]
25 to 100 | 25 to 100 | O=C(Nc1cccc(C(F)(F)F)c1)NC1CC2(C1)CN(C(=O)c1cnc3[nH]ccc3c1)C2 [Example 3, 1-(2-(1H-pyrrolo[2,3-b]pyridine-5-carbonyl)-2-azaspiro[3.3]heptan-6-yl)-3-(3-(trifluoromethyl)phenyl)urea]
< 5 | < 5 | O=C(Nc1cccc(C(F)(F)F)c1)NC1CC2(C1)CN(C(=O)c1cnn3ccsc13)C2 [Example 4, 1-(2-(pyrazolo[5,1-b]thiazole-7-carbonyl)-2-azaspiro[3.3]heptan-6-yl)-3-(3-(trifluoromethyl)phenyl)urea]
5 to 25 | < 5 | CN1CCN(c2ccc3ncc(C(=O)N4CC5(CC(NC(=O)Nc6cccc(C(F)(F)F)c6)C5)C4)n3c2)CC1 [Example 5, 1-(2-(6-(4-methylpiperazin-1-yl)imidazo[1,2-a]pyridine-3-carbonyl)-2-azaspiro[3.3]heptan-6-yl)-3-(3-(trifluoromethyl)phenyl)urea]
5 to 25 | < 5 | O=C(Nc1cccc(C(F)(F)F)c1)NC1CC2(C1)CN(C(=O)c1cnc3n1CCOC3)C2 [Example 6, 1-(2-(5,6-dihydro-8H-imidazo[2,1-c][1,4]oxazine-3-carbonyl)-2-azaspiro[3.3]heptan-6-yl)-3-(3-(trifluoromethyl)phenyl)urea]
5 to 25 | 5 to 25 | O=C(Nc1cccc(C(F)(F)F)c1)NC1CC2(C1)CN(C(=O)c1cnc3cccnn13)C2 [Example 7, 1-(2-(imidazo[1,2-b]pyridazine-3-carbonyl)-2-azaspiro[3.3]heptan-6-yl)-3-(3-(trifluoromethyl)phenyl)urea]
5 to 25 | < 5 | Cn1cncc1C(=O)N1CC2(CC(NC(=O)Nc3cccc(C(F)(F)F)c3)C2)C1 [Example 8, 1-(2-(1-methyl-1H-imidazole-5-carbonyl)-2-azaspiro[3.3]heptan-6-yl)-3-(3-(trifluoromethyl)phenyl)urea]
< 5 | < 5 | Cn1ccn2ncc(C(=O)N3CC4(CC(NC(=O)Nc5cccc(C(F)(F)F)c5)C4)C3)c12 [Example 9, 1-(2-(1-methyl-1H-imidazo[1,2-b]pyrazole-7-carbonyl)-2-azaspiro[3.3]heptan-6-yl)-3-(3-(trifluoromethyl)phenyl)urea]
5 to 25 | 5 to 25 | O=C(Nc1cccc(C(F)(F)F)c1)NC1CC2(C1)CN(Cc1cnc3cnccn13)C2 [Example 11, 1-(2-(imidazo[1,2-a]pyrazin-3-ylmethyl)-2-azaspiro[3.3]heptan-6-yl)-3-(3-(trifluoromethyl)phenyl)urea]
5 to 25 | 5 to 25 | O=C(Nc1cccc(C(F)(F)F)c1)NC1CC2(C1)CN(Cc1cnc3[nH]ncc3c1)C2 [Example 12, 1-(2-((1H-pyrazolo[3,4-b]pyridine-5-yl)methyl)-2-azaspiro[3.3]heptan-6-yl)-3-(3-(trifluoromethyl)phenyl)urea]
< 5 | < 5 | O=C(Nc1cccc(C(F)(F)F)c1)NC1CC2(C1)CN(c1ccnc3[nH]ncc13)C2 [Example 15, 1-(2-(1H-pyrazolo[3,4-b]pyridin-4-yl)-2-azaspiro[3.3]heptan-6-yl)-3-(3-(trifluoromethyl)phenyl)urea]
5 to 25 | < 5 | O=C(Nc1cc(F)cc(C(F)(F)F)c1)NC1CC2(C1)CN(C(=O)c1cnn3ccncc13)C2 [Example 16, 1-(3-fluoro-5-(trifluoromethyl)phenyl)-3-(2-(pyrazolo[1,5-a]pyrazine-3-carbonyl)-2-azaspiro[3.3]heptan-6-yl)urea]
5 to 25 | < 5 | O=C(Nc1cc(C(F)(F)F)ccc1F)NC1CC2(C1)CN(C(=O)c1cnn3ccncc13)C2 [Example 17, 1-(2-fluoro-5-(trifluoromethyl)phenyl)-3-(2-(pyrazolo[1,5-a]pyrazine-3-carbonyl)-2-azaspiro[3.3]heptan-6-yl)urea]
25 to 100 | 5 to 25 | CC(C)(C)c1cc(NC(=O)NC2CC3(C2)CN(C(=O)c2cnn4ccncc24)C3)no1 [Example 18, 1-(5-(tert-butyl)isoxazol-3-yl)-3-(2-(pyrazolo[1,5-a]pyrazine-3-carbonyl)-2-azaspiro[3.3]heptan-6-yl)urea]
< 5 | < 5 | N#Cc1cc(NC(=O)NC2CC3(C2)CN(C(=O)c2cnn4ccncc24)C3)cc(C(F)(F)F)c1 [Example 19, 1-(3-cyano-5-(trifluoromethyl)phenyl)-3-(2-(pyrazolo[1,5-a]pyrazine-3-carbonyl)-2-azaspiro[3.3]heptan-6-yl)urea]
5 to 25 | < 5 | CC(C)(C)c1cc(NC(=O)NC2CC3(C2)CN(C(=O)c2cnn4ccsc24)C3)no1 [Example 20, 1-(5-(tert-butyl)isoxazol-3-yl)-3-(2-(pyrazolo[5,1-b]thiazole-7-carbonyl)-2-azaspiro[3.3]heptan-6-yl)urea]
< 5 | < 5 | O=C(Nc1cccc(OC(F)(F)F)c1)NC1CC2(C1)CN(C(=O)c1cnn3ccsc13)C2 [Example 21, 1-(2-(pyrazolo[5,1-b]thiazole-7-carbonyl)-2-azaspiro[3.3]heptan-6-yl)-3-(3-(trifluoromethoxy)phenyl)urea]
5 to 25 | < 5 | O=C(Nc1cncc(C(F)(F)F)c1)NC1CC2(C1)CN(C(=O)c1cnn3ccsc13)C2 [Example 22, 1-(2-(pyrazolo[5,1-b]thiazole-7-carbonyl)-2-azaspiro[3.3]heptan-6-yl)-3-(5-(trifluoromethyl)pyridin-3-yl)urea]
< 5 | < 5 | COc1ccc(OC(F)(F)F)cc1NC(=O)NC1CC2(C1)CN(C(=O)c1cnn3ccsc13)C2 [Example 23, 1-(2-methoxy-5-(trifluoromethoxy)phenyl)-3-(2-(pyrazolo[5,1-b]thiazole-7-carbonyl)-2-azaspiro[3.3]heptan-6-yl)urea]
5 to 25 | < 5 | CN(C)Cc1ccc(NC(=O)NC2CC3(C2)CN(C(=O)c2cnn4ccsc24)C3)cc1C(F)(F)F [Example 24, 1-(4-((dimethylamino)methyl)-3-(trifluoromethyl)phenyl)-3-(2-(pyrazolo[5,1-b]thiazole-7-carbonyl)-2-azaspiro[3.3]heptan-6-yl)urea]
25 to 100 | 5 to 25 | CN(C(=O)Nc1cccc(C(F)(F)F)c1)C1CC2(C1)CN(C(=O)c1cnn3ccncc13)C2 [Example 25, 1-methyl-1-(2-(pyrazolo[1,5-a]pyrazine-3-carbonyl)-2-azaspiro[3.3]heptan-6-yl)-3-(3-(trifluoromethyl)phenyl)urea]
< 5 | < 5 | O=C(CC1CC2(C1)CN(C(=O)c1cnn3ccsc13)C2)Nc1cccc(C(F)(F)F)c1 [Example 27, 2-(2-(pyrazolo[5,1-b]thiazole-7-carbonyl)-2-azaspiro[3.3]heptan-6-yl)-N-(3-(trifluoromethyl)phenyl)acetamide]
5 to 25 | < 5 | O=C(CC1CC2(C1)CN(C(=O)c1cnc3ccccn13)C2)Nc1cccc(C(F)(F)F)c1 [Example 28, 2-(2-(imidazo[1,2-a]pyridine-3-carbonyl)-2-azaspiro[3.3]heptan-6-yl)-N-(3-(trifluoromethyl)phenyl)acetamide]
< 5 | < 5 | O=C(Nc1cccc(CC(F)(F)F)c1)NC1CC2(C1)CN(C(=O)c1cnn3ccsc13)C2 [Example 31, 1-(2-(pyrazolo[5,1-b]thiazole-7-carbonyl)-2-azaspiro[3.3]heptan-6-yl)-3-(3-(2,2,2-trifluoroethyl)phenyl)urea]
5 to 25 | < 5 | Nc1cccn2ncc(C(=O)N3CC4(CC(NC(=O)Nc5cccc(C(F)(F)F)c5)C4)C3)c12 [Example 32, 1-(2-(4-aminopyrazolo[1,5-a]pyridine-3-carbonyl)-2-azaspiro [3.3]heptan-6-yl)-3-(3-(trifluoromethyl)phenyl)urea]
